According to ChEMBL document CHEMBL1124726, “Novel [(diazomethyl)carbonyl]-1,2,3,4-tetrahydronaphthalene derivatives as potential photoaffinity ligands for the 5-HT1A receptor” (J Med Chem, 1990):
pIC50: −log10 of the molar value.

Columns and labels:
[1] = biological target: T1, 5-hydroxytryptamine receptor 1A (Rattus norvegicus, UniProt P19327); test: Binding affinity to 5-hydroxytryptamine 1A receptor in rat cortex using [3H]-8-OH- DPAT as radioligand
T1 sequence (P19327 whole entry): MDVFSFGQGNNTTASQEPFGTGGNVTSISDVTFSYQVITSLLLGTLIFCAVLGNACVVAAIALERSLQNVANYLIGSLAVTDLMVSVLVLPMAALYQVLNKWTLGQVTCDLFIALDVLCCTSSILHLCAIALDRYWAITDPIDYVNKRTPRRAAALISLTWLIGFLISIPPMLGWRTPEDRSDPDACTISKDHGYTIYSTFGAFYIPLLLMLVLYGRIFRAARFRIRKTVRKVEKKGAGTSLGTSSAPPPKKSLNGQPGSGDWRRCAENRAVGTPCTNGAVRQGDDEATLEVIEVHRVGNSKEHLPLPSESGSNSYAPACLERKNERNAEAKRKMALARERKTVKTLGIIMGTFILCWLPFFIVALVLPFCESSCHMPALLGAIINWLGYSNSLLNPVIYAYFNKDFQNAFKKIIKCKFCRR

[2] = biological target: T1, 5-hydroxytryptamine receptor 1A; test: Binding affinity to 5-hydroxytryptamine 1A receptor in rat hippocampus using [3H]-8-OH- DPAT as radioligand; assay type: tissue-based

Row | SMILES | pIC50 [1] | pIC50 [2]
1 | CCCN(CCC)C1CCc2cccc(OCC(=O)C=[N+]=[N-])c2C1 (configuration not stated) | 7.14 | 7.11
2 | CCCN(CCC)C1CCc2cccc(OC(=O)[CH-][N+]#N)c2C1 (configuration not stated) | 6.97 | 6.81
3 | CCCN(CCC)C1CCc2cccc(C(=O)OC)c2C1 (configuration not stated) | 8.27 | 
4 | CCCN(CCC)C1CCc2cccc(C(=O)[CH-][N+]#N)c2C1 (configuration not stated) | 7.70 | 7.62
